Reference: PMC8873464, “Tuning the rate of aggregation of hIAPP into amyloid using small-molecule modulators of assembly” (Nature Communications, 2022)
Blank lines part the entries; values can stand above or below the compound they belong to.

Assays:
Assay type in all cases: binding
[1] = molecular target: T1, human islet amyloid polypeptide (wt hIAPP) (Homo sapiens, UniProt P10997); experiment: Tyr37 fluorescence quenching and native ESI-MS (weak adduct); ThT acceleration of aggregation; no SPR response, no significant NMR CSPs
T1 construct: gene IAPP; 37-residue synthetic peptide, amidated C-terminus, Cys-2/Cys-7 disulfide, monomeric
T1 sequence (P10997 34-70 limits assumed): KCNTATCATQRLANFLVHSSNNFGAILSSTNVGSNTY

[2] = molecular target: T1, human islet amyloid polypeptide (wt hIAPP); experiment: Tyr37 fluorescence quenching titration; also SPR (Kd […]) and native ESI-MS/CID; known inhibitor used as control
[3] = molecular target: T1, human islet amyloid polypeptide (wt hIAPP); experiment: Tyr37 fluorescence quenching titration; also native ESI-MS, SPR (Kd […]), 2D NMR CSPs and ThT aggregation inhibition

Kd [1]: ~280 µM
Structure (SMILES): O=C(Nc1ccccc1F)c1cnc(-c2ccccc2)nc1CCNC(=O)C1CCCCC1 [YX-A-1]

Kd [2]: 13 µM
Structure (SMILES): O=C(O[C@@H]1Cc2c(O)cc(O)cc2O[C@@H]1c1cc(O)c(O)c(O)c1)c1cc(O)c(O)c(O)c1 [EGCG]

Kd [3]: 32 µM
Structure (SMILES): CC(=O)N[C@H]1C[C@@H](c2ccc(NC(=O)Cn3nnc4ccccc43)cc2)O[C@@H](C(C)C)C1 [YX-I-1]
